Measurements: ChEMBL document CHEMBL2396623, “Direct targeting of β-catenin: Inhibition of protein-protein interactions for the inactivation of Wnt signaling” (Bioorg Med Chem, 2013)

Molecular target: T1, Catenin beta-1 (Homo sapiens, UniProt P35222)
T1 sequence (P35222 whole entry): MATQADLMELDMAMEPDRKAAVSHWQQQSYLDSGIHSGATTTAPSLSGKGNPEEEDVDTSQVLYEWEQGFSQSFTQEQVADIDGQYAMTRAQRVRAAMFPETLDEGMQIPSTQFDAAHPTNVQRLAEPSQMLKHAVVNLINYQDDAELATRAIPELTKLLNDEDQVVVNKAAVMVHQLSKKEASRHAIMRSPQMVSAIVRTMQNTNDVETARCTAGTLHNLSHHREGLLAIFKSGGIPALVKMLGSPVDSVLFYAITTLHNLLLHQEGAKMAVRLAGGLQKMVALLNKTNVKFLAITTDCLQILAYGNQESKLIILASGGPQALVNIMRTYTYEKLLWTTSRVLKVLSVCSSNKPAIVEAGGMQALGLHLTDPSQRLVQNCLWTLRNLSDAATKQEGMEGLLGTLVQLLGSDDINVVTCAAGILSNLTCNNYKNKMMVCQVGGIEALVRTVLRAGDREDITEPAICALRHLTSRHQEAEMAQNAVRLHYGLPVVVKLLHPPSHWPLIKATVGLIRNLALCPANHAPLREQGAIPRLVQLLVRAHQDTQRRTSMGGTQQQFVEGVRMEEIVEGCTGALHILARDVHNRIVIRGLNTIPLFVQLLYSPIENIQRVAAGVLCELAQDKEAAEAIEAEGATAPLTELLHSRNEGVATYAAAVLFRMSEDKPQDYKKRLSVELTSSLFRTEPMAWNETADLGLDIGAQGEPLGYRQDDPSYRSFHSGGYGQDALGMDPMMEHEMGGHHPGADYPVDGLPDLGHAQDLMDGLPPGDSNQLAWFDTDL
Experiment: Inhibition of GST-tagged Tcf4 binding to human beta-catenin after 2 hrs by ELISA

SMILES	IC50
COC(=O)c1c(C)cc2c(c1O)[C@]1(O)C(=O)c3cc4c(c(O)c3C(=O)[C@]1(OC)[C@H](O)C2)C(=O)C=C(N[C@@H]1O[C@H](C)[C@@H](OC)[C@H](O)[C@@H]1OC)C4=O	< 10 µM
COc1c(C[C@@H](C)OC(=O)Oc2ccc(O)cc2)c2c3c(C[C@@H](C)OC(=O)c4ccccc4)c(OC)c(=O)c4c(O)cc(OC)c(c5c(OC)cc(O)c(c1=O)c52)c43 [CALPHOSTIN C]	< 10 µM
COc1c(CC(C)OC(=O)c2c(C)cc(O)cc2O)c2c3c(CC(C)OC(=O)c4c(C)cc(O)cc4O)c(OC)c(=O)c4c(O)cc(OC)c(c5c(OC)cc(O)c(c1=O)c52)c43 (centres undefined)	< 10 µM
CCCC(=O)c1cc2c(c(O)c1C)C(=O)C(=O)c1c(O)cccc1-2	< 10 µM
